Data published in US20150246071A1, “TREATMENT COMPOSITIONS” (REOXCYN DISCOVERIES GROUP, INC., priority 2012, published 2015).

Assays:
NRF2 = assay: Western Blot validation of NRF2 nuclear accumulation in HMVEC-L; format: cell-based, human; conditions: ASEA 1% at 30, 60, 120 min, H2O2 30 min
Procedure: (§1) 8. A Western Blot analysis was done on extra-nuclear and intra-nuclear fractions, separated by differential centrifugation, of serum starved HMVEC-L cell cultures exposed to <1% of a composition of the invention compared with a positive hydrogen peroxide control to determine phosphorylation events (oxidant action) in the extra-nuclear fraction and NRF2 (antioxidant transcription) in the intra-nuclear fraction at 0, 30, 60, 90 and 120 min intervals.
(§2) Experimental Methods for Western Blot Validation of NRF2 Nuclear Accumulation: HMVEC-L were treated with 1% of a composition of the invention, nuclear extracts were separated through centrifugal differentiation from the extra-nuclear cytosol at 30, 60 and 120 min and subjected to Western Blot analysis for NRF2. In the Western blot experiment the extra-nuclear fraction was probed for phosphorylated proteins using a combination of anti-phospho serine, threonine and tyrosine antibodies. Virtually all cellular processes are regulated by posttranslational modifications and protein phosphorylation is a prevalent mechanism. […]

[1] = test system: phosphorylated proteins (extra-nuclear fraction); assay: Western Blot of protein phosphorylation in extra-nuclear fraction of HMVEC-L; format: cell-based, human; conditions: composition 1%, H2O2 positive control
Procedure: as §1, §2

## OO [H2O2, Hydrogen peroxide]
NRF2
  NRF2 levels in nuclear extracts (Western Blot): did not increase
[1]
  phosphorylation of extra-nuclear protein (Western Blot): marked increase
